Results from PubChem BioAssay AID270 (DTP/NCI, 2004).
Several values for one entry are separate records, joined by “and”; a condition that tells them apart may be missing. Equal entries are not always repeated. Records with an inconclusive call do not appear. *1 amine or outer side, *2 acyl side, *3 side chain or, on linkers, in order; H or OH if unused. Where a SMILES comes first, the peptide text is derived from it. Bridges are numbered along the chain shown (N, C = ends). Roman numbers before positions name the chains, in order. [ ]: non-standard residue; d: D form. Actinocin(1to9) = Cc1c2oc3c(C)ccc(C(=O)[*:2])c3nc-2c(C(=O)[*:1])c(N)c1=O; NMeV = CN[CH](C(=O)O)C(C)C; Sar = CNCC(=O)O

Tested on: BDF1 mice, s.c. Lewis lung carcinoma, T/C %
Experiment: NCI In Vivo Anticancer Drug Screen. Data for tumor model Lewis Lung Carcinoma (subcutaneous) in B6D2F1 (BDF1) mice
Summary of the method: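 Antitumor effect in vivo is scored from survival or tumor burden, reported as treated relative to vehicle controls.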

[1] = endpoint: mean tumor weight, dose: 5.0 mg/kg/injection, schedule: Q01DX011 (ip), vehicle: saline, higher = larger tumour

C[C@]12CCC(=O)C=C1CC[C@@H]1[C@@H]2C(=O)C[C@@]2(C)[C@H]1CC[C@]2(O)C(=O)CO
T/C (endpoint: mean tumor weight, dose: 100.0 mg/kg/injection, schedule: Q01DX011 (ip), vehicle: steriod suspending solution, higher = larger tumour): 58 % of control
T/C (endpoint: median survival time, dose: 5.0 mg/kg/injection, schedule: Q02DX009 (ip), vehicle: Klucel (hydroxypropylcellulose) (HPC), higher = longer survival): 102 % of control
T/C (endpoint: median survival time, dose: 10.0 mg/kg/injection, schedule: Q02DX009 (ip), vehicle: Klucel (hydroxypropylcellulose) (HPC), higher = longer survival): 102 % of control
T/C (endpoint: median survival time, dose: 20.0 mg/kg/injection, schedule: Q02DX009 (ip), vehicle: Klucel (hydroxypropylcellulose) (HPC), higher = longer survival): 101 % of control
T/C (endpoint: median survival time, dose: 40.0 mg/kg/injection, schedule: Q02DX009 (ip), vehicle: Klucel (hydroxypropylcellulose) (HPC), higher = longer survival): 97 % of control and 102 % of control

CCCCCCCCCCCCCCCCCC(=O)NN
T/C (endpoint: median survival time, dose: 200.0 mg/kg/injection, schedule: Q01DX009 (ip), vehicle: Klucel (hydroxypropylcellulose) (HPC), higher = longer survival): 120 % of control

Nc1nc(SCc2ccc([N+](=O)[O-])cc2)c2[nH]cnc2n1
T/C (endpoint: mean tumor weight, dose: 125.0 mg/kg/injection, schedule: Q01DX011 (ip), vehicle: other, higher = larger tumour): 98 % of control
T/C (endpoint: mean tumor weight, dose: 250.0 mg/kg/injection, schedule: Q01DX011 (ip), vehicle: other, higher = larger tumour): 75 % of control
T/C (endpoint: mean tumor weight, dose: 500.0 mg/kg/injection, schedule: Q01DX011 (ip), vehicle: other, higher = larger tumour): 80 % of control
T/C (endpoint: mean tumor weight, dose: 1000.0 mg/kg/injection, schedule: Q01DX011 (ip), vehicle: other, higher = larger tumour): 36 % of control

[I][Hg][CH2]C1COCC([CH2][Hg][I])O1.[I][Hg][CH2]C1COCC([CH2][Hg][I])O1 (stereo unspecified)
T/C (endpoint: mean tumor weight, dose: 19.0 mg/kg/injection, schedule: Q01DX011 (ip), vehicle: other, higher = larger tumour): 80 % of control
T/C (endpoint: mean tumor weight, dose: 29.0 mg/kg/injection, schedule: Q01DX011 (ip), vehicle: other, higher = larger tumour): 57 % of control
T/C (endpoint: mean tumor weight, dose: 66.0 mg/kg/injection, schedule: Q01DX011 (ip), vehicle: other, higher = larger tumour): 36 % of control

Cc1ccc2nc(-c3ccc(N=Cc4ccccc4O)cc3)sc2c1
T/C (endpoint: median survival time, dose: 200.0 mg/kg/injection, schedule: Q01DX009 (ip), vehicle: olive oil, sesame oil, peanut oil, higher = longer survival): 87 % of control

C[C@]12C=CC(=O)C=C1CC[C@@H]1[C@@H]2[C@@H](O)C[C@@]2(C)[C@H]1CC[C@]2(O)C(=O)COC(=O)C1CCCC1
T/C (endpoint: mean tumor weight, dose: 9.0 mg/kg/injection, schedule: Q01DX011 (sc), vehicle: steriod suspending solution, higher = larger tumour): 68 % of control
T/C (endpoint: mean tumor weight, dose: 13.0 mg/kg/injection, schedule: Q01DX011 (sc), vehicle: steriod suspending solution, higher = larger tumour): 51 % of control
T/C (endpoint: mean tumor weight, dose: 20.0 mg/kg/injection, schedule: Q01DX011 (sc), vehicle: steriod suspending solution, higher = larger tumour): 77 % of control
T/C (endpoint: mean tumor weight, dose: 30.0 mg/kg/injection, schedule: Q01DX011 (sc), vehicle: steriod suspending solution, higher = larger tumour): 52 % of control

CCOC(C)C(/C=N/NC(N)=S)=NNC(N)=S (stereo unspecified)
T/C (endpoint: mean tumor weight, dose: 30.0 mg/kg/injection, schedule: Q01DX011 (ip), vehicle: saline, higher = larger tumour): 77 % of control
T/C (endpoint: mean tumor weight, dose: 60.0 mg/kg/injection, schedule: Q01DX011 (ip), vehicle: saline, higher = larger tumour): 81 % of control
T/C (endpoint: mean tumor weight, dose: 120.0 mg/kg/injection, schedule: Q01DX011 (ip), vehicle: saline, higher = larger tumour): 66 % of control

CCCCC(=O)OCC(=O)[C@]1(O)Cc2c(O)c3c(c(O)c2[C@@H](OC2CC(NC(=O)C(F)(F)F)C(O)C(C)O2)C1)C(=O)c1c(OC)cccc1C3=O (stereo partly specified)
T/C (endpoint: median survival time, dose: 14.0 mg/kg/injection, schedule: Q01DX009 (ip), vehicle: distilled water + Tween-80, higher = longer survival): 114 % of control
T/C (endpoint: median survival time, dose: 20.0 mg/kg/injection, schedule: Q01DX009 (ip), vehicle: distilled water + Tween-80, higher = longer survival): 123 % of control
T/C (endpoint: median survival time, dose: 54.0 mg/kg/injection, schedule: Q01DX001 (ip), vehicle: distilled water + Tween-80, higher = longer survival): 113 % of control
T/C (endpoint: median survival time, dose: 80.0 mg/kg/injection, schedule: Q01DX001 (ip), vehicle: distilled water + Tween-80, higher = longer survival): 155 % of control
T/C (endpoint: median survival time, dose: 120.0 mg/kg/injection, schedule: Q01DX001 (ip), vehicle: distilled water + Tween-80, higher = longer survival): 158 % of control

CC(C)C(=O)[O][Sn]([CH3])([CH3])[CH3]
T/C (endpoint: median survival time, dose: 0.09 mg/kg/injection, schedule: Q01DX009 (ip), vehicle: saline, higher = longer survival): 97 % of control
T/C (endpoint: median survival time, dose: 0.19 mg/kg/injection, schedule: Q01DX009 (ip), vehicle: saline, higher = longer survival): 101 % of control
T/C (endpoint: median survival time, dose: 0.38 mg/kg/injection, schedule: Q01DX009 (ip), vehicle: saline, higher = longer survival): 89 % of control and 105 % of control

CN(N=O)C(=O)N[C@@H](C=O)[C@@H](O)[C@H](O)[C@H](O)CO
T/C (endpoint: mean tumor weight (est.), dose: 20.0 mg/kg/injection, schedule: Q01DX009 (ip), vehicle: water, higher = larger tumour): 93 % of control
T/C (endpoint: mean tumor weight (est.), dose: 40.0 mg/kg/injection, schedule: Q01DX009 (ip), vehicle: water, higher = larger tumour): 65 % of control
T/C (endpoint: mean tumor weight (est.), dose: 80.0 mg/kg/injection, schedule: Q01DX009 (ip), vehicle: water, higher = larger tumour): 42 % of control
T/C (endpoint: median survival time, dose: 20.0 mg/kg/injection, schedule: Q01DX009 (ip), vehicle: water, higher = longer survival): 115 % of control
T/C (endpoint: median survival time, dose: 40.0 mg/kg/injection, schedule: Q01DX001 (ip), vehicle: other, higher = longer survival): 99 % of control and 105 % of control
T/C (endpoint: median survival time, dose: 40.0 mg/kg/injection, schedule: Q01DX001 (ip), vehicle: saline, higher = longer survival): 86 % of control
T/C (endpoint: median survival time, dose: 40.0 mg/kg/injection, schedule: Q01DX009 (ip), vehicle: water, higher = longer survival): 94 % of control
T/C (endpoint: median survival time, dose: 80.0 mg/kg/injection, schedule: Q01DX001 (ip), vehicle: other, higher = longer survival): 90 % of control and 108 % of control
T/C (endpoint: median survival time, dose: 80.0 mg/kg/injection, schedule: Q01DX001 (ip), vehicle: saline, higher = longer survival): 94 % of control
T/C (endpoint: median survival time, dose: 160.0 mg/kg/injection, schedule: Q01DX001 (ip), vehicle: other, higher = longer survival): 98 % of control and 111 % of control
T/C (endpoint: median survival time, dose: 160.0 mg/kg/injection, schedule: Q01DX001 (ip), vehicle: saline, higher = longer survival): 108 % of control
T/C (endpoint: median survival time, dose: 320.0 mg/kg/injection, schedule: Q01DX001 (ip), vehicle: other, higher = longer survival): 99 % of control
T/C (endpoint: median survival time, dose: 320.0 mg/kg/injection, schedule: Q01DX001 (ip), vehicle: saline, higher = longer survival): 91 % of control

CCOC(=O)NP(=O)(N1CC1)N1CC1
T/C (endpoint: mean tumor weight, dose: 2.5 mg/kg/injection, schedule: Q01DX011 (ip), vehicle: saline, higher = larger tumour): 61 % of control and 75 % of control
T/C [1]: 35 % of control and 56 % of control

COc1cc(C=Nc2ccc(-c3nc(Cc4ccccc4)sc3C)cc2)ccc1N(CCCl)CCCl
T/C (endpoint: median survival time, dose: 12.5 mg/kg/injection, schedule: Q01DX009 (ip), vehicle: Klucel (hydroxypropylcellulose) (HPC), higher = longer survival): 90 % of control
T/C (endpoint: median survival time, dose: 25.0 mg/kg/injection, schedule: Q01DX009 (ip), vehicle: Klucel (hydroxypropylcellulose) (HPC), higher = longer survival): 110 % of control

COc1ccc([C@@H]2c3cc4c(cc3C[C@H]3COC(=O)[C@@H]32)OCO4)cc1OC
T/C (endpoint: median survival time, dose: 11.0 mg/kg/injection, schedule: Q01DX009 (ip), vehicle: saline with Tween-80, higher = longer survival): 98 % of control
T/C (endpoint: median survival time, dose: 22.0 mg/kg/injection, schedule: Q01DX009 (ip), vehicle: saline with Tween-80, higher = longer survival): 100 % of control
T/C (endpoint: median survival time, dose: 33.0 mg/kg/injection, schedule: Q01DX009 (ip), vehicle: saline with Tween-80, higher = longer survival): 97 % of control

CC/C(C)=C1\OC(=O)C(C)C(O)C(Cc2cccnc2)NC(=O)C(NC(=O)c2ncccc2O)C(C)OC1=O (stereo unspecified)
T/C (endpoint: median survival time, dose: 6.25 mg/kg/injection, schedule: Q01DX009 (ip), vehicle: saline with Tween-80, higher = longer survival): 92 % of control
T/C (endpoint: median survival time, dose: 12.5 mg/kg/injection, schedule: Q01DX009 (ip), vehicle: saline with Tween-80, higher = longer survival): 98 % of control

CC1([CH2][Hg][I])COCC([CH2][Hg][I])O1 (stereo unspecified)
T/C [1]: 63 % of control
T/C (endpoint: mean tumor weight, dose: 10.0 mg/kg/injection, schedule: Q01DX011 (ip), vehicle: saline, higher = larger tumour): 42 % of control
T/C (endpoint: mean tumor weight, dose: 20.0 mg/kg/injection, schedule: Q01DX011 (ip), vehicle: saline, higher = larger tumour): 52 % of control
T/C (endpoint: mean tumor weight, dose: 40.0 mg/kg/injection, schedule: Q01DX011 (ip), vehicle: saline, higher = larger tumour): 39 % of control

C=C1C(C)C2C(Cc3ccccc3)NC(=O)C23C(OC(C)=O)C=CC(C)(O)C(=O)C(C)C/C=C/C3C1O (stereo unspecified)
T/C (endpoint: median survival time, dose: 0.31 mg/kg/injection, schedule: Q01DX009 (ip), vehicle: Klucel (hydroxypropylcellulose) (HPC), higher = longer survival): 121 % of control
T/C (endpoint: median survival time, dose: 0.62 mg/kg/injection, schedule: Q01DX009 (ip), vehicle: Klucel (hydroxypropylcellulose) (HPC), higher = longer survival): 124 % of control
T/C (endpoint: median survival time, dose: 1.25 mg/kg/injection, schedule: Q01DX009 (ip), vehicle: Klucel (hydroxypropylcellulose) (HPC), higher = longer survival): 110 % of control
T/C (endpoint: median survival time, dose: 2.5 mg/kg/injection, schedule: Q01DX009 (ip), vehicle: Klucel (hydroxypropylcellulose) (HPC), higher = longer survival): 118 % of control
T/C (endpoint: median survival time, dose: 5.0 mg/kg/injection, schedule: Q01DX009 (ip), vehicle: Klucel (hydroxypropylcellulose) (HPC), higher = longer survival): 109 % of control

CCC(C)C1NC(=O)C(NC(=O)c2c3nc4c(C(=O)NC5C(=O)NC(C(C)CC)C(=O)N6CCCC6C(=O)N(C)CC(=O)N(C)C(C(C)C)C(=O)OC5C)ccc(C)c4oc-3c(C)c(=O)c2N)C(C)OC(=O)C(C(C)C)N(C)C(=O)CN(C)C(=O)C2CCCN2C1=O (stereo unspecified) (I: TIP[Sar][NMeV] / II: TIP[Sar][NMeV]; ester I:1-I:C, II:1-II:C; linker I:N-II:N via Actinocin(1to9); configuration not given here)
T/C (endpoint: median survival time, dose: 12.5 micrograms/kg/injection, schedule: Q01DX009 (ip), vehicle: water, higher = longer survival): 112 % of control
T/C (endpoint: median survival time, dose: 25.0 micrograms/kg/injection, schedule: Q01DX009 (ip), vehicle: water, higher = longer survival): 109 % of control
T/C (endpoint: median survival time, dose: 50.0 micrograms/kg/injection, schedule: Q01DX009 (ip), vehicle: water, higher = longer survival): 115 % of control
T/C (endpoint: median survival time, dose: 75.0 micrograms/kg/injection, schedule: Q04DX003 (ip), vehicle: water, higher = longer survival): 105 % of control
T/C (endpoint: median survival time, dose: 150.0 micrograms/kg/injection, schedule: Q04DX003 (ip), vehicle: water, higher = longer survival): 111 % of control
T/C (endpoint: median survival time, dose: 300.0 micrograms/kg/injection, schedule: Q04DX003 (ip), vehicle: water, higher = longer survival): 116 % of control
